Series [1] in a line: Oral bioavailability in rat. It is filed as ADME, organism-based. As to conditions: in vivo.
Series [2] is described as follows: Volume of distribution at steady state in rat. The format is ADME, organism-based. As to conditions: in vivo, read-out: Vdss.
Series [3] can be described thus: in vitro. As to conditions: human, Caco-2.
Series [4] is described as follows: in vitro. As to conditions: human, Caco-2. This is another data set of the same source.
Another series can be described thus: physchem. As to conditions: octanol/water.

Each structure is given as a SMILES string.

In series [1], `CC(C)(C)CCC1(C(=O)c2ccc(Cl)c(Cl)c2)CCNC1` (single isomer, unassigned; (+)) showed a bioavailability of 57%. Further, in series [2], the Vd came to 14.3 L/kg.

`CCCC1(C(=O)c2ccc3[nH]ncc3c2)CCCN1` (stereo not drawn): the basolateral-to-apical permeability (Papp B→A) in the series “in vitro [3]” was 160 nm/s. Moreover, the Papp A→B in “in vitro [4]” stood at 290 nm/s. The compound also registered a pH-dependent lipophilicity (logD) in “physchem” of 1.

With `CNCC[C@H](Oc1cccc2ccccc12)c1cccs1` [DULOXETINE], the bioavailability in series [1] is 22%. Besides, the Vd in series [2] was 20.9 L/kg.

Consider `CCCC1(C(=O)c2ccc3[nH]ccc3c2)CCCN1` (stereo not drawn), for which, in the series “in vitro [3]”, the Papp B→A stood at 100 nm/s. For the same compound, in “in vitro [4]”, the Papp A→B was 410 nm/s. The pH-dependent lipophilicity (logD) in the series “physchem” was 1.45.

In series [1], `CC(C)(C)CCC1(C(=O)c2cc(F)c3[nH]ccc3c2)CCNC1` (single isomer, unassigned; (+)) yielded a bioavailability of 5%. In series [2], the Vd came to 14 L/kg.

Regarding `O=C(c1ccc2[nH]ccc2c1)C1(Cc2ccccc2)CCNC1` (stereo not drawn), in the series “in vitro [3]”, the Papp B→A came to 190 nm/s. In the series “in vitro [4]”, this compound had an apical-to-basolateral permeability (Papp A→B) of 170 nm/s.

As to `CC(C)OCC1(C(=O)c2ccc(N)c(Cl)c2)CCCN1` (single isomer, unassigned; (+)), in the series “in vitro [3]”, the Papp B→A turned out to be 180 nm/s. The compound further showed a Papp A→B in the series “in vitro [4]” of 300 nm/s. Besides, the logD in the series “physchem” was found to be 0.84.

`CC(C)(C)CCC1(C(=O)c2ccc3[nH]ncc3c2)CCCN1` (stereo not drawn) came in with a Papp B→A in the series “in vitro [3]” of 120 nm/s. The Papp A→B in the series “in vitro [4]” came to 200 nm/s. For the same compound, the log distribution coefficient (logD) in the series “physchem” is 2.03.

In the series “in vitro [3]”, `CC(C)CC1(C(=O)c2ccc3[nH]ncc3c2)CCCN1` (stereo not drawn) came in with a Papp B→A of 200 nm/s. This compound registered a Papp A→B in the series “in vitro [4]” of 320 nm/s. The compound further yielded a logD in the series “physchem” of 1.

These data come from ChEMBL document CHEMBL1221322, “Design, synthesis, and biological evaluation of new monoamine reuptake inhibitors with potential therapeutic utility in depression and pain” (Bioorg Med Chem Lett, 2010).
